Data from patent publication US11667602B2, “Compounds and their use” (AstraZeneca AB, priority 2020, dated 2023).
≈ marks a conversion by molar mass, not a printed value. Like-named read-outs stand apart in the source and are kept apart here.

How the values were obtained:
[1] = Human Hepatocyte Stability (Test D); format: in vitro ADME; conditions: human, cryopreserved pooled human hepatocytes (LiverPool 10-Donor), geometric mean if run multiple times
How it was run: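 Pooled 10-donor cryopreserved human hepatocytes (≥80% viable) in L-15 medium at 0.25×10^6 cells per 0.25 mL well. Compound added from 100 μM acetonitrile solution; incubated at 37 °C with shaking, acetonitrile-quenched, LC-MS analysed. Clint (μL/min/10^6 cells) from ln % parent vs time slope; geometric mean of repeat runs.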

[2] = Solubility (Test F); format: physicochemical; conditions: arithmetic mean if run multiple times
Procedure: The assay was conducted according to the Solubility Assay described in pages 164-167 of Wernevik, J. et al., “A Fully Integrated Assay Panel for Early Drug Metabolism and Pharmacokinetics Profiling”, Assay and Drug Development Technologies, 2020, 18(4), 157-179. Data are reported in Table 36 as solubility ([…]. Where the assay was run multiple times for the same compound, the arithmetic mean is reported.

[3] = Human Plasma Protein Binding (Test B); format: in vitro ADME; conditions: fraction unbound (fu)
How it was run: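 Human plasma protein binding run per the published Wernevik et al. (2020) integrated DMPK panel protocol. Values are fraction unbound (fu, % free); repeat runs averaged arithmetically.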

[4] = Human Liver Microsomal Stability (Test C); format: in vitro ADME; conditions: human, liver microsomes
How it was run: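 Human liver microsome incubation per the Wernevik et al. integrated DMPK panel protocol. Intrinsic clearance reported as CLint in μl/min/mg protein, averaged arithmetically over repeat runs.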

[5] = Rat Hepatocyte Stability (Test E); format: in vitro ADME; conditions: rat, hepatocytes, geometric mean if run multiple times
How it was run: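 Run per the published AstraZeneca-type rat hepatocyte stability protocol (Wernevik et al. panel). Values are mean intrinsic clearance, Clint in μl/min/10^6 cells; geometric mean used for repeated runs.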

[6] = target: T1, human RXFP1 (Homo sapiens, UniProt Q9HBX9); assay: RXFP1 Hu cAMP (Test A); format: cell-based; design: expressed in transfected cells; host or cells: Jump-In T-REx CHO-K1 cells (ThermoFisher), induced with 10 ng/ml doxycycline for 24 h
T1 sequence (Q9HBX9 1-757): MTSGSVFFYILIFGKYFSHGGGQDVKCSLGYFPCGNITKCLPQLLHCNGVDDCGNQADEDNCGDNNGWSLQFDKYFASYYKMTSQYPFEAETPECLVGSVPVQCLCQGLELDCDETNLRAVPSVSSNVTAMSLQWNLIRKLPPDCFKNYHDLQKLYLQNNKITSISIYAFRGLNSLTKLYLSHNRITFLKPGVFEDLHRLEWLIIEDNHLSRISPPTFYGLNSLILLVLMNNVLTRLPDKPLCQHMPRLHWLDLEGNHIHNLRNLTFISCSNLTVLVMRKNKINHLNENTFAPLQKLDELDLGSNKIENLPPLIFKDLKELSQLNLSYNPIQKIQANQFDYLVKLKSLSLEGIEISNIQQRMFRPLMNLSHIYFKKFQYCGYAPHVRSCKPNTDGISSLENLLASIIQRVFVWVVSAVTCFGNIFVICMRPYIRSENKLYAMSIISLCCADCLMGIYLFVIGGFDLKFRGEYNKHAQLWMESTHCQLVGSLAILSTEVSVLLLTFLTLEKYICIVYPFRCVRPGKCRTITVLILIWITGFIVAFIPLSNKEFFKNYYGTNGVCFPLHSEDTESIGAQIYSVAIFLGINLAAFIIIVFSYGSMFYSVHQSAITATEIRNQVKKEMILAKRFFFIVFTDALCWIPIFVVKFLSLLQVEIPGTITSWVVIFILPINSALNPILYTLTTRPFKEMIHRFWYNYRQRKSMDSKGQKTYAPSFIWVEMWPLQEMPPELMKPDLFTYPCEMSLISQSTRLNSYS
How it was run: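 Competitive HTRF cAMP readout (2 h, room temperature) in CHO-K1 cells stably expressing human RXFP1, induced with 10 ng/ml doxycycline for 24 h; IBMX 0.5 mM final.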

[7] = RXFP1 Hu cAMP, read-out: Test A EC50

COc1ccc(O[C@H]2CC[C@@](C)(C(=O)O)CC2)cc1C(=O)N[C@@H]1[C@H]2CC[C@H](C2)[C@@H]1C(=O)NCC1(C)CCC1 [Example 381]
hepatocyte CLint at 1 µM [1]: 6.1 µL/min/1e6 cells
solubility [2]: 1000 µM (≈ 527 µg/mL)
Test B Human Plasma Protein Binding (% free) [3]: 3.8 % free
microsomal CLint [4]: 36 µL/min/mg
hepatocyte CLint [5]: 21 µL/min/1e6 cells
EC50 ([6]; Test A EC50, RXFP1 Hu cAMP): 110 nM

CCOc1cc(F)c(O[C@H]2CC[C@@](C)(C(=O)O)CC2)cc1C(=O)N[C@@H]1[C@H]2CC[C@H](C2)[C@@H]1C(=O)NCC1(C)CCC1 [Example 385]
hepatocyte CLint at 1 µM [1]: 8 µL/min/1e6 cells
solubility [2]: 780 µM (≈ 436 µg/mL)
Test B Human Plasma Protein Binding (% free) [3]: 4.1 % free
microsomal CLint [4]: 50 µL/min/mg
hepatocyte CLint [5]: 19 µL/min/1e6 cells
Test A Sinf ([6]; RXFP1 Hu cAMP): 106%

CC1(CNC(=O)[C@H]2[C@@H]3CC[C@@H](C3)[C@H]2NC(=O)c2cc(O[C@H]3CC[C@@](C)(C(=O)O)CC3)c(C#N)cc2F)CCC1 [Example 401]
hepatocyte CLint at 1 µM [1]: 5.4 µL/min/1e6 cells
solubility [2]: 1000 µM (≈ 540 µg/mL)
Test B Human Plasma Protein Binding (% free) [3]: 2.7 % free
microsomal CLint [4]: 16 µL/min/mg
hepatocyte CLint [5]: 17 µL/min/1e6 cells
Test A Sinf ([6]; RXFP1 Hu cAMP): 115%
EC50 ([6]; Test A EC50, RXFP1 Hu cAMP): 49 nM

COc1c(C#N)cc(O[C@H]2CC[C@@](C)(C(=O)O)CC2)cc1C(=O)N[C@@H]1[C@H]2CC[C@H](C2)[C@@H]1C(=O)NCC1(C)CCC1 [Example 404]
hepatocyte CLint at 1 µM [1]: 11 µL/min/1e6 cells
solubility [2]: 1000 µM (≈ 552 µg/mL)
Test B Human Plasma Protein Binding (% free) [3]: 2.3 % free
microsomal CLint [4]: 50 µL/min/mg
hepatocyte CLint [5]: 19 µL/min/1e6 cells
EC50 ([6]; Test A EC50, RXFP1 Hu cAMP): 86 nM

CC1(CNC(=O)[C@H]2[C@@H]3CC[C@@H](C3)[C@H]2NC(=O)c2cc(O[C@H]3CC[C@@](C)(C(=O)O)CC3)c(Cl)cc2F)CCC1 [Example 408]
hepatocyte CLint at 1 µM [1]: 6.5 µL/min/1e6 cells
solubility [2]: 670 µM (≈ 368 µg/mL)
Test B Human Plasma Protein Binding (% free) [3]: 0.87 % free
microsomal CLint [4]: 32 µL/min/mg
hepatocyte CLint [5]: 20 µL/min/1e6 cells
Test A Sinf ([6]; RXFP1 Hu cAMP): 106%
EC50 [6, 7]: 24 nM

COc1cc(Cl)c(O[C@H]2CC[C@@](C)(C(=O)O)CC2)cc1C(=O)N[C@@H]1[C@H]2CC[C@H](C2)[C@@H]1C(=O)NCC(C)(C)C(F)(F)F [Example 409]
hepatocyte CLint at 1 µM [1]: 3.1 µL/min/1e6 cells
solubility [2]: 960 µM (≈ 579 µg/mL)
Test B Human Plasma Protein Binding (% free) [3]: 3.4 % free
microsomal CLint [4]: 18 µL/min/mg
hepatocyte CLint [5]: 7.1 µL/min/1e6 cells
Test A Sinf ([6]; RXFP1 Hu cAMP): 107%
EC50 [6, 7]: 15 nM

COc1cc(Cl)c(O[C@H]2CC[C@@](C)(C(=O)O)CC2)cc1C(=O)N[C@@H]1[C@H]2CC[C@H](C2)[C@@H]1C(=O)NC12CC(F)(C1)C2 [Example 411]
hepatocyte CLint at 1 µM [1]: 2.1 µL/min/1e6 cells
solubility [2]: 710 µM (≈ 400 µg/mL)
Test B Human Plasma Protein Binding (% free) [3]: 1.8 % free
microsomal CLint [4]: 7.9 µL/min/mg
hepatocyte CLint [5]: 17 µL/min/1e6 cells
Test A Sinf ([6]; RXFP1 Hu cAMP): 108%
EC50 [6, 7]: 24 nM

COc1cc(Cl)c(O[C@H]2CC[C@@](C)(C(=O)O)CC2)cc1C(=O)N[C@@H]1[C@H]2CC[C@H](C2)[C@@H]1C(=O)NCC(C)(C)C [Example 412]
hepatocyte CLint at 1 µM [1]: 2.6 µL/min/1e6 cells
solubility [2]: 930 µM (≈ 511 µg/mL)
Test B Human Plasma Protein Binding (% free) [3]: 5.3 % free
microsomal CLint [4]: 13 µL/min/mg
hepatocyte CLint [5]: 24 µL/min/1e6 cells
Test A Sinf ([6]; RXFP1 Hu cAMP): 110%
EC50 [6, 7]: 37 nM

CC1(CNC(=O)[C@H]2[C@H]3CC[C@H](C3)[C@H]2NC(=O)c2cc(O[C@H]3CC[C@@](C)(C(=O)O)CC3)c(C#N)cc2F)CCC1 [Example 413]
hepatocyte CLint at 1 µM [1]: 4.5 µL/min/1e6 cells
solubility [2]: 820 µM (≈ 443 µg/mL)
Test B Human Plasma Protein Binding (% free) [3]: 1.5 % free
microsomal CLint [4]: 9.3 µL/min/mg
hepatocyte CLint [5]: 21 µL/min/1e6 cells
Test A Sinf ([6]; RXFP1 Hu cAMP): 107%
EC50 ([6]; Test A EC50, RXFP1 Hu cAMP): 16 nM

COc1cc(F)c(O[C@H]2CC[C@@](C)(C(=O)O)CC2)cc1C(=O)N[C@H]1[C@@H](C(=O)NCC2(C)CCC2)[C@@H]2C=C[C@H]1C2 [Example 417]
hepatocyte CLint at 1 µM [1]: 5.1 µL/min/1e6 cells
solubility [2]: 900 µM (≈ 488 µg/mL)
Test B Human Plasma Protein Binding (% free) [3]: 4.8 % free
microsomal CLint [4]: 24 µL/min/mg
hepatocyte CLint [5]: 17 µL/min/1e6 cells
Test A Sinf ([6]; RXFP1 Hu cAMP): 102%
EC50 [6, 7]: 9.8 nM

COc1cc(F)c(OCCCCCC(=O)O)cc1C(=O)N[C@@H]1[C@H]2CC[C@H](C2)[C@@H]1C(=O)Nc1cccc(S(=O)(=O)C(F)(F)F)c1 [Example 435, 6-(2-Fluoro-4-methoxy-5-(((1S,2R,3S,4R)-3-((3-((trifluoromethyl)sulfonyl)phenyl)carbamoyl)bicyclo[2.2.1]heptan-2-yl)carbamoyl)phenoxy)hexanoic acid]
hepatocyte CLint at 1 µM [1]: 150 µL/min/1e6 cells
solubility [2]: 880 µM (≈ 567 µg/mL)
Test B Human Plasma Protein Binding (% free) [3]: 1.4 % free
microsomal CLint [4]: 63 µL/min/mg
hepatocyte CLint [5]: > 300 µL/min/1e6 cells
Test A Sinf ([6]; RXFP1 Hu cAMP): 103%

COc1cc(F)c(OCCCCCCC(=O)O)cc1C(=O)N[C@@H]1[C@H]2CC[C@H](C2)[C@@H]1C(=O)Nc1cccc(S(=O)(=O)C(F)(F)F)c1 [Example 436]
hepatocyte CLint at 1 µM [1]: 97 µL/min/1e6 cells
solubility [2]: 220 µM (≈ 145 µg/mL)
Test B Human Plasma Protein Binding (% free) [3]: 0.82 % free
microsomal CLint [4]: 70 µL/min/mg
hepatocyte CLint [5]: > 300 µL/min/1e6 cells
Test A Sinf ([6]; RXFP1 Hu cAMP): 115%
EC50 [6, 7]: 540 nM

COc1cc(F)c(O[C@H]2C[C@H](C(=O)O)C2)cc1C(=O)NC1[C@H]2CC[C@H](C2)[C@@H]1C(=O)Nc1cccc(S(=O)(=O)C(F)(F)F)c1 (some centres unmarked) [Example 443]
hepatocyte CLint at 1 µM [1]: 26 µL/min/1e6 cells
solubility [2]: 760 µM (≈ 478 µg/mL)
Test B Human Plasma Protein Binding (% free) [3]: 1.5 % free
microsomal CLint [4]: 31 µL/min/mg
hepatocyte CLint [5]: 21 µL/min/1e6 cells
Test A Sinf ([6]; RXFP1 Hu cAMP): 101%
EC50 [6, 7]: 540 nM

COc1cc(F)c(O[C@H]2C[C@@H](C(=O)O)C2)cc1C(=O)NC1[C@H]2CC[C@H](C2)[C@@H]1C(=O)Nc1cccc(S(=O)(=O)C(F)(F)F)c1 (some centres unmarked) [Example 444]
hepatocyte CLint at 1 µM [1]: 15 µL/min/1e6 cells
solubility [2]: > 1000 µM
Test B Human Plasma Protein Binding (% free) [3]: 2.5 % free
microsomal CLint [4]: 18 µL/min/mg
hepatocyte CLint [5]: 22 µL/min/1e6 cells
Test A Sinf ([6]; RXFP1 Hu cAMP): 117%
EC50 [6, 7]: 120 nM

COC[C@]1(C(=O)O)CC[C@@H](Oc2cc(C(=O)N[C@@H]3[C@H]4CC[C@H](C4)[C@@H]3C(=O)Nc3cccc(S(=O)(=O)C(F)(F)F)c3)c(OC)cc2F)CC1 [Example 482]
hepatocyte CLint at 1 µM [1]: 18 µL/min/1e6 cells
solubility [2]: > 1000 µM
Test B Human Plasma Protein Binding (% free) [3]: 1.5 % free
microsomal CLint [4]: 56 µL/min/mg
hepatocyte CLint [5]: 78 µL/min/1e6 cells
Test A Sinf ([6]; RXFP1 Hu cAMP): 112%
EC50 [6, 7]: 11 nM
